Results published in PMC6197744, “Triazolo[4,5-d]pyrimidines as Validated General Control Nonderepressible 2 (GCN2) Protein Kinase Inhibitors Reduce Growth of Leukemia Cells” (Computational and Structural Biotechnology Journal, 2018).
Converted amounts (≈) assume the structure as drawn. Where two headings read alike, the source gives them in different places.

Key:
GCN2 = tested on: GCN2; parameters: method as in PMID 25587754; conditions: biochemical inhibition of kinase activity; cited from earlier work
human GCN2 = biological target: T1, human GCN2 (Homo sapiens, UniProt Q9P2K8); assay: radiometric HotSpot kinase assay; assay type: biochemical; conditions: ATP at the ATP Km of GCN2; means of two independent experiments
T1 construct: purchased Reaction Biology Corporation (Malvern, PA)
Procedure: (§1) Compounds 1–9 were screened in a radiometric […] kinase assay against human GCN2 and other kinases involved in the UPR and ISR pathways (Table 1). […] The most soluble of the potent tool compounds (1 and 2) were selected for in vitro cell-based assays where the phosphorylation of eIF2α (p-eIF2α) was used as a readout for GCN2 inhibition.
(§2) In vitro compound profiling for recombinant GCN2, PERK, HRI, PKR, or IRE1 kinases were performed at Reaction Biology Corporation (Malvern, PA) using the HotSpot kinase assay. Briefly, all compounds provided for testing were dissolved in 10 mM DMSO stock solutions. Serial dilutions were conducted by epMotion 5070 in DMSO. Specific kinase/substrate mixtures and required cofactors were prepared in reaction buffer (20 mM Hepes (pH 7.5), 10 mM MgCl2, 1 mM EGTA, 0.02% Brij35, 0.02 mg/ml BSA, 0.1 mM Na3VO4, 2 mM DTT, 1% DMSO). Compounds were added to the kinase reaction mixture by Acoustic technology (Echo550; nanoliter range) and incubated for 20 min at room temperature. The kinase reaction was initiated by adding ^33P ATP to a final concentration of 10 μM for single point kinase activity reading or to the ATP Km of GCN2 for IC50 readings. The reaction was incubated or 2 h at room temperature and kinase activity was detected by filter-binding method. IC50 values and curves were generated with GraphPad Prism 7 (GraphPad software).

PERK = biological target: T2, PERK (Homo sapiens, UniProt Q9NZJ5); assay: radiometric HotSpot kinase assay; assay type: biochemical; conditions: read-out: % Enzyme inhibition at 10 μM, PERK
T2 construct: purchased Reaction Biology Corporation (Malvern, PA)
T2 sequence (Q9NZJ5 30-1116): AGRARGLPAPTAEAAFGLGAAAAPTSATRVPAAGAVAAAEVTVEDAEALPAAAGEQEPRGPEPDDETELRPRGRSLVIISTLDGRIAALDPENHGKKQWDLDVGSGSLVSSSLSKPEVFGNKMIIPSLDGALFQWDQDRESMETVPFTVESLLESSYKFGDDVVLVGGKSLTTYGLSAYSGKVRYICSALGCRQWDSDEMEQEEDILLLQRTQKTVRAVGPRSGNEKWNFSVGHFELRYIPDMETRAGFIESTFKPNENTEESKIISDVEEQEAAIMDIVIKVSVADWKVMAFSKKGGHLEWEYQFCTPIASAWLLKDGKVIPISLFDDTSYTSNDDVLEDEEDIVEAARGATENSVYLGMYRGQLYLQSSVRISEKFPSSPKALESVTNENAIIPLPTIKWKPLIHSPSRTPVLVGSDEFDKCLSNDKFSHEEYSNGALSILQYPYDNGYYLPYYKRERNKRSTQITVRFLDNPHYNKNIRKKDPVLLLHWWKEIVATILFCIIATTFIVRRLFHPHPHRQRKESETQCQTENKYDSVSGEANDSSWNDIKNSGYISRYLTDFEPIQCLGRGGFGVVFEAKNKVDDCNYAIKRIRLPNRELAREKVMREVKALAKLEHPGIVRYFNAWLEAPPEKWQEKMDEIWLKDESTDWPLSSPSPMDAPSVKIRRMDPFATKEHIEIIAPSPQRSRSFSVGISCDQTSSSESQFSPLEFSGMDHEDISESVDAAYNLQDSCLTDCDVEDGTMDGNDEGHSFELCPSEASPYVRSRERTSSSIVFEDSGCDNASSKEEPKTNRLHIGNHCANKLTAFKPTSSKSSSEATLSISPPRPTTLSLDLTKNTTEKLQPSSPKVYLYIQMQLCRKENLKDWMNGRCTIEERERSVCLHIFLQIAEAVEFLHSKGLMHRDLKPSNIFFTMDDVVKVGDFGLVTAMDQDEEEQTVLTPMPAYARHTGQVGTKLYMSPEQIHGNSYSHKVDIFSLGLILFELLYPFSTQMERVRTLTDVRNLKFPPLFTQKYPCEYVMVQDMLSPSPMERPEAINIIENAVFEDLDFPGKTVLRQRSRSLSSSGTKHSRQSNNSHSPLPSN
Procedure: as §2, with “Serial dilutions were conducted by epMotion 5070 in DMSO.” left out, “The kinase reaction was initiated by adding ^33P ATP to a final concentration of 10 μM for single point kinase activity reading or to the ATP Km of GCN2 for IC50 readings.” left out

IRE1 = biological target: T3, IRE1 (Homo sapiens, UniProt O75460); assay: radiometric HotSpot kinase assay; assay type: biochemical; conditions: 10 μM compound, 10 μM ATP; read-out: % Enzyme inhibition at 10 μM, IRE1
T3 construct: purchased Reaction Biology Corporation (Malvern, PA)
Procedure: as §1, §2

PKR = biological target: T4, PKR (Homo sapiens, UniProt P19525); assay: radiometric HotSpot kinase assay; assay type: biochemical; conditions: 10 μM compound, 10 μM ATP; read-out: % Enzyme inhibition at 10 μM, PKR
T4 construct: purchased Reaction Biology Corporation (Malvern, PA)
Procedure: as §1, §2

HRI = biological target: T5, HRI (Homo sapiens, UniProt Q9BQI3); assay: radiometric HotSpot kinase assay; assay type: biochemical; conditions: 10 μM compound, 10 μM ATP; read-out: % Enzyme inhibition at 10 μM, HRI
T5 construct: purchased Reaction Biology Corporation (Malvern, PA)
Procedure: as §1, §2

Kinetic solubility assay = assay type: physicochemical; conditions: aqueous buffer, kinetic from dmso stock; PBS pH 7.4, 25 °C, 2 h
Procedure: Compound solubility was determined in PBS at pH 7.4 by Pharmaron, Inc. (Beijing, China). Briefly, all compounds and control solutions were prepared in DMSO at concentrations of 10 mM. Diclofenac was used as a positive control. 10 μL or 30 μL of each compound was added into a 96-well plate, followed by adding 990 μL or 970 μL, respectively, of PBS at pH 7.4. A stir stick was added to each well and wells were sealed using a molded PTDE/SIL 96-Well Plate Cover. […] After incubation the samples were transferred into the filter plate and filtered by Vacuum Manifold. The filtered samples were diluted with methanol to obtain 3 μM standards (STD). The samples were analyzed by LC-MS/MS against a standard of known concentration in DMSO. The solubility values of duplicate test compounds were calculated in Microsoft Excel using the following equation, where DF means dilution factor: Sample=AREASample×INJVOLStd×DFSample×STD/AREAStd×INJVOLSample

[1] = Permeability assay (PAMPA); assay type: in vitro ADME; conditions: pH 7.4, 25 °C, <10 low, >10 high permeability
Procedure: GCN2 compound permeability was determined by PAMPA and was performed by Pharmaron, Inc. (Beijing, China). All compounds and control stock solutions were prepared in DMSO at a concentration of 10 mM. Testosterone and methotrexate were used as control compounds. Compound stock solutions were diluted with PBS (pH 7.4) to a final concentration of 10 μM. A 1.8% solution (w/v) of lecithin in dodecane was prepared and sonicated to ensure a complete dissolution. 5 μL of the lecithin/dodecane mixture were pipetted into each acceptor plate well (top compartment). Immediately after the application of the artificial membrane (within 10 min), 300 μL of PBS (pH 7.4) solution were added to each well of the acceptor plate. 300 μL of drug-containing solutions were added to each well of the donor plate (bottom compartment) in triplicate. The plate lid was replaced and incubated at 25 °C, 60 rpm for 16 h. After incubation, aliquots of 50 μL from each well of acceptor and donor plate were transferred into a 96-well plate and 200 μL of methanol (containing IS: 100 nM Alprazolam, 200 nM Labetalol and 2 μM Ketoprofen) was added to each well. The plate was vortexed at 750 rpm for 100 s. Samples were centrifuged at 3220g for 20 min. The compound concentrations were determined by LC/MS/MS. The effective permeability (Pe), in units of centimeter per second were calculated using the following equation: logPe=logC×−ln1−drugacceptor/drugequilibrium

T4 sequence (P19525 whole entry): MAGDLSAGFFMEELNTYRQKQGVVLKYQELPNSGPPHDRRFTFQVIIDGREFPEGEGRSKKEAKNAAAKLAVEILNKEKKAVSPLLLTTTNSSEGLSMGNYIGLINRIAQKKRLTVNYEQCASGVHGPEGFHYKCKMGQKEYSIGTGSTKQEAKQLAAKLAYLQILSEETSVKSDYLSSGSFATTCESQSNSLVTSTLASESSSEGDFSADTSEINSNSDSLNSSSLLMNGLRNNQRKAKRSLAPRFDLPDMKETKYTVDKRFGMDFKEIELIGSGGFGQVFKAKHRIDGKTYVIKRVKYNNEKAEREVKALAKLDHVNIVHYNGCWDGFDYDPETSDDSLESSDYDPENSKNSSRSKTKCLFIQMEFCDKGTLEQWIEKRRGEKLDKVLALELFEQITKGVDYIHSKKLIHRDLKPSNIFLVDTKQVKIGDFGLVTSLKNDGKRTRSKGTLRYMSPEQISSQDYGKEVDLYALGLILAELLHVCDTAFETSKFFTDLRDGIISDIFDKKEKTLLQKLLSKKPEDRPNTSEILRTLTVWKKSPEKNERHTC
T1 sequence (Q9P2K8 whole entry): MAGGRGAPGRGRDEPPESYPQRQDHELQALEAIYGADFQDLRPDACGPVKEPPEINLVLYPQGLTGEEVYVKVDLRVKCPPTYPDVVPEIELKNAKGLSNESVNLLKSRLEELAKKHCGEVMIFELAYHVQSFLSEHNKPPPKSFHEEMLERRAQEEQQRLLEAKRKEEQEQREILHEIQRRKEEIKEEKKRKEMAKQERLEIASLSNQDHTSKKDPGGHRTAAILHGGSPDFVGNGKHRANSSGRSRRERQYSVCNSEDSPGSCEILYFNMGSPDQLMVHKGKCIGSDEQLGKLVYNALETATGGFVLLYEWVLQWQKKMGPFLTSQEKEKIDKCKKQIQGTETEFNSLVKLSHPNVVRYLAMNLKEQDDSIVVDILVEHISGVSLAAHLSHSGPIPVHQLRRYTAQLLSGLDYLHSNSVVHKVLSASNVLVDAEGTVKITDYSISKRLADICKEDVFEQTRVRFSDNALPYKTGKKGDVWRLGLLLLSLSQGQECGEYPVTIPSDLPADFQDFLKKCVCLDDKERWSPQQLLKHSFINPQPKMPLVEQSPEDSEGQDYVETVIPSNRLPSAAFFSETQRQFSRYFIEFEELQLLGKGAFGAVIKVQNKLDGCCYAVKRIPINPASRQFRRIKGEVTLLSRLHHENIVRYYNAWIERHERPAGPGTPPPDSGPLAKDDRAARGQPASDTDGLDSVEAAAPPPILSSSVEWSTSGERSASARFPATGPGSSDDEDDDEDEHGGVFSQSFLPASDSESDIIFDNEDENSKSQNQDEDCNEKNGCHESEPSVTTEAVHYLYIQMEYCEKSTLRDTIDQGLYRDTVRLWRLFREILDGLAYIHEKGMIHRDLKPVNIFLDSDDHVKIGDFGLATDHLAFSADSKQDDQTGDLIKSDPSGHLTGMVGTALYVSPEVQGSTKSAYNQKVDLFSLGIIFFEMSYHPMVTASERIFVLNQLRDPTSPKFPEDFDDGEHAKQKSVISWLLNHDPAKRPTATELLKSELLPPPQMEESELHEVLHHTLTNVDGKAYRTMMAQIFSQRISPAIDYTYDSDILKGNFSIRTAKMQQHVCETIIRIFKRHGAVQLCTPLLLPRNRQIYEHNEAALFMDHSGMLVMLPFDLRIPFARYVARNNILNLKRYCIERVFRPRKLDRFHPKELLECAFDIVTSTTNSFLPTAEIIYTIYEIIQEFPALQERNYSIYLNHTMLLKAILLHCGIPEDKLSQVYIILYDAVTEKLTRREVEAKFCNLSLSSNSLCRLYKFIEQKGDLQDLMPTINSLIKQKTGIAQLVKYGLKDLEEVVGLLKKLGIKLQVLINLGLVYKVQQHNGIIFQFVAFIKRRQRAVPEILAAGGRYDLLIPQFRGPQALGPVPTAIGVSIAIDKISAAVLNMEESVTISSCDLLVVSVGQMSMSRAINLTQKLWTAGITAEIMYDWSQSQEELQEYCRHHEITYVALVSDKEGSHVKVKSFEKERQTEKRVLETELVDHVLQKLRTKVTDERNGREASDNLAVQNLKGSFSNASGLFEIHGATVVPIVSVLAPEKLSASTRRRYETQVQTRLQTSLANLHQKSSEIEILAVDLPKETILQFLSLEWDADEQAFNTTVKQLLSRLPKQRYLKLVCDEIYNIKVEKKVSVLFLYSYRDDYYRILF
T5 sequence (Q9BQI3 whole entry): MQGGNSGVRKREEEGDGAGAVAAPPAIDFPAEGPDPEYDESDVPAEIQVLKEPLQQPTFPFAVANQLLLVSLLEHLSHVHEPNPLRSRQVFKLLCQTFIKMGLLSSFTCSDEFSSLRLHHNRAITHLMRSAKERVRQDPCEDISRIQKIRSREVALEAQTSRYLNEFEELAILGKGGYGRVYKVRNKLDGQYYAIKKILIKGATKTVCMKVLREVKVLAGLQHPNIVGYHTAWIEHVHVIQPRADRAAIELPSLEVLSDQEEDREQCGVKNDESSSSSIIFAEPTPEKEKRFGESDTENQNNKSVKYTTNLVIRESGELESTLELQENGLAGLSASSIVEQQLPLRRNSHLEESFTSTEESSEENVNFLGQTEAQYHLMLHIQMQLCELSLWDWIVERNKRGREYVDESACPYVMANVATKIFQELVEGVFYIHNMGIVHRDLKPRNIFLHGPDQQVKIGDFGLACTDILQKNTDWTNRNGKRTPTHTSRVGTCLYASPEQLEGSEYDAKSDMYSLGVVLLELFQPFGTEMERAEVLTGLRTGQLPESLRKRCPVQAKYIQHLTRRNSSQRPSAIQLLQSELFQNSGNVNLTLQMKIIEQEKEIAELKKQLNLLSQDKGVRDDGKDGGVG
T3 sequence (O75460 19-977): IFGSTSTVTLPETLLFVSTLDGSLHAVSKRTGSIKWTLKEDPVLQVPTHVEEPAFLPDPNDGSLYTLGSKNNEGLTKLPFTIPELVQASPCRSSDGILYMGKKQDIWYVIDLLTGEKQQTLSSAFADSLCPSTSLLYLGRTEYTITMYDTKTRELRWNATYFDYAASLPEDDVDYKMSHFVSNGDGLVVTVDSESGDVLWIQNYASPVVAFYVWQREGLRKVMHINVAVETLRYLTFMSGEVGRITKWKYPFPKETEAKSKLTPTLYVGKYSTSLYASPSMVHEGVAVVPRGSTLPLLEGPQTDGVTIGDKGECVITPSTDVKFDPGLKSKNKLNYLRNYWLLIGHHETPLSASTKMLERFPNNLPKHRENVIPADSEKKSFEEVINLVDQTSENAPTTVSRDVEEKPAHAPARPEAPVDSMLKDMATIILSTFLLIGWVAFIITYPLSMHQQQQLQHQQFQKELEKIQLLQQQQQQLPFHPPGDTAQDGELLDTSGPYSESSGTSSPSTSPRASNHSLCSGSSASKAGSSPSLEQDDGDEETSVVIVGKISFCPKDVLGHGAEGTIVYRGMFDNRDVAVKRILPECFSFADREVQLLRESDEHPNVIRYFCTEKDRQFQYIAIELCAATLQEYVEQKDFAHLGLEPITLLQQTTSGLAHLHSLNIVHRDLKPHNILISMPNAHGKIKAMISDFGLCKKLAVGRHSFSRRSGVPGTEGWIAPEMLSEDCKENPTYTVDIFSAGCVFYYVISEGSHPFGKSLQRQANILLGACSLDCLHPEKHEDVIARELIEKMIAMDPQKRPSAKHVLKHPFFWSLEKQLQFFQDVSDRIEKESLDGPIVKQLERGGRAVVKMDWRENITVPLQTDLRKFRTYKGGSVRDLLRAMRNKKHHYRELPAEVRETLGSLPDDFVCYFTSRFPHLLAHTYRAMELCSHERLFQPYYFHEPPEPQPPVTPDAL

IC50 (human GCN2) [µM] | inhibition at 10 µM (PERK; 10 μM compound, 10 μM ATP) [%] | inhibition at 10 µM (IRE1) [%] | inhibition at 10 µM (PKR) [%] | inhibition at 10 µM (HRI) [%] | solubility at 2 h (Kinetic solubility assay) [µM] | Papp at 16 h, 10 μM [1] [×10⁻⁶ cm/s] | inhibition at 10 µM (PERK) [%] | SMILES | IC50 (GCN2) [µM]
– | – | – | – | – | – | – | – | CNc1ncc2c(F)c(-c3c(C)ccc(C(=O)c4c(-c5ccccc5)n(C)n(-c5ccccc5)c4=O)c3N)ccc2n1 [4-{2-amino-3-[5-fluoro-2-(methylamino)quinazolin-6-yl]-4-methylbenzoyl}-1-methyl-2,5-diphenyl-1,2-dihydro-3H-pyrazol-3-one] | 0.036
0.0445 | 25 | – | – | – | – | – | – | CCOc1ccc(-n2nnc3cnc(Nc4cnn(C5CCOCC5)c4)nc32)cc1 [Compound 3, 3-(4-Ethoxyphenyl)-N-(1-(tetrahydro-2H-pyran-4-yl)-1H-pyrazol-4-yl)-3H-[1,2,3]triazolo[4,5-d]pyrimidin-5-amine] | –
0.0257 | < 10 | 18 | 96 | < 10 | 0.05 (≈ 0.0207 µg/mL) | 2.19 | – | Fc1cc(-n2nnc3cnc(Nc4cnn(C5CCOCC5)c4)nc32)ccc1Cl [Compound 4, 3-(4-Chloro-3-fluorophenyl)-N-(1-(tetrahydro-2H-pyran-4-yl)-1H-pyrazol-4-yl)-3H-[1,2,3]triazolo[4,5-d]pyrimidin-5-amine] | –
0.0172 | < 10 | 22 | 96 | < 10 | 0.2 (≈ 0.0841 µg/mL) | 10.5 | – | COC(=O)c1ccc(-n2nnc3cnc(Nc4cnn(C5CCOCC5)c4)nc32)cc1 [Compound 5, Methyl 4-(5-((1-(tetrahydro-2H-pyran-4-yl)-1H-pyrazol-4-yl)amino)-3H-[1,2,3]triazolo[4,5-d]pyrimidin-3-yl)benzoate] | –
0.0205 | 35 | – | – | – | – | – | – | c1nn(C2CCOCC2)cc1Nc1ncc2nnn(-c3ccc4cn[nH]c4c3)c2n1 [Compound 6, 3-(1H-Indazol-6-yl)-N-(1-(tetrahydro-2H-pyran-4-yl)-1H-pyrazol-4-yl)-3H-[1,2,3]triazolo[4,5-d]pyrimidin-5-amine] | –
0.0224 | 24 | – | – | – | – | – | – | CCOc1ccc(-n2nnc3cnc(Nc4cnn([C@H]5CC[C@H](O)CC5)c4)nc32)cc1 [Compound 7, trans-4-(4-((3-(4-Ethoxyphenyl)-3H-[1,2,3]triazolo[4,5-d]pyrimidin-5-yl)amino)-1H-pyrazol-1-yl)cyclohexan-1-ol] | –
0.0211 | < 10 | 15 | 98 | < 10 | 0.1 (≈ 0.0429 µg/mL) | 4.68 | – | O[C@H]1CC[C@H](n2cc(Nc3ncc4nnn(-c5ccc(Cl)c(F)c5)c4n3)cn2)CC1 [Compound 8, trans-4-(4-((3-(4-chloro-3-fluorophenyl)-3H-[1,2,3]triazolo[4,5-d]pyrimidin-5-yl)amino)-1H-pyrazol-1-yl)cyclohexan-1-ol] | –
0.0464 | 14 | 24 | 95 | < 10 | 0.17 (≈ 0.0739 µg/mL) | 2.29 | – | COC(=O)c1ccc(-n2nnc3cnc(Nc4cnn([C@H]5CC[C@H](O)CC5)c4)nc32)cc1 [Compound 9, methyl 4-(5-((1-(trans-4-hydroxycyclohexyl)-1H-pyrazol-4-yl)amino)-3H-[1,2,3]triazolo[4,5-d]pyrimidin-3-yl)benzoate] | –
> 10 | – | – | – | – | – | – | 100 | Cc1cccc(CC(=O)N2CCc3c2ccc(-c2cn(C)c4ncnc(N)c24)c3F)n1 [GSK2656157, reference compound] | –
